For 30 compounds, IC50 results are on record in patent US20170253607A1, “LONG-ACTING HIV PROTEASE INHIBITOR” (Shionogi & Co., Ltd., priority 2014, published 2017).

In this experiment the target is HIV-1 PR (Human immunodeficiency virus type 1 group M subtype B, UniProt P04585). The experiment is described as follows: HIV-protease inhibitory activity assay (FRET peptide substrate). Format: biochemical. To be noted: Test Example 1. In a few lines: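 Compounds were preincubated with HIV-1 PR (0.83 ng) at room temperature in pH 4.8 NaAc buffer (0.5 M NaCl, EDTA, DTT, Tween 20), then HiLyte Fluor 488/QXL 520 FRET peptide (2 μmol/L final) was added for 60 min. Fluorescence was read at 485/535 nm, and IC50 was fitted by four-parameter logistic regression.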
In the case of `COc1ccc(S(=O)(=O)N(CC(C)C)CC(O)C(Cc2ccc(NCc3ccc(C)cc3C(=O)Nc3sc4c(c3C(=O)O)CC(C)(C)CC4)cc2)NC(=O)OC2COC3(C)OCCC23)cc1` (stereo not drawn) [Compound I-716], the IC50 turned out to be 3.95 nM. In other words, the single-digit nanomolar range.
The value for `COc1ccc(S(=O)(=O)N(CC(C)C)CC(O)C(Cc2ccc(NCc3cc(C)ccc3C(=O)Nc3sc4c(c3C(=O)O)CC(C)(C)CC4)cc2)NC(=O)OC2COC3(C)OCCC23)cc1` (stereo not drawn) [Compound I-717] was 2.77 nM.
Consider `COc1ccc(S(=O)(=O)N(CC(C)C)CC(O)C(Cc2ccc(NCc3cccc(C)c3C(=O)Nc3sc4c(c3C(=O)O)CC(C)(C)CC4)cc2)NC(=O)OC2COC3(C)OCCC23)cc1` (stereo not drawn) [Compound I-718], for which half-maximal inhibition (IC50) required 3.97 nM.
Compound `COc1ccc(S(=O)(=O)N(CC(C)C)CC(O)C(Cc2ccc(NCc3cc(-c4ccc(-c5ccccc5)cc4)ccc3-c3sc4c(c3C(=O)O)CC(C)(C)CC4)cc2)NC(=O)OC2COC3(C)OCCC23)cc1` (stereo not drawn) [Compound I-721] had a half-inhibitory concentration (IC50) of 2.24 nM.
Compound `CC=Cc1ccc(-c2sc3c(c2C(=O)O)CC(C)(C)CC3)c(CNc2ccc(CC(NC(=O)OC3COC4(C)OCCC34)C(O)CN(CC(C)C)S(=O)(=O)c3ccc(OC)cc3)cc2)c1` (stereo not drawn) [Compound I-723] displayed an IC50 of 1.65 nM. The IC50 values of the last two compounds are within 1.5-fold of each other.
Compound `COc1ccc(S(=O)(=O)N(CC(C)C)CC(O)C(Cc2ccc(NCc3cc(-c4ccc5c(c4)[nH]c4ccccc45)ccc3-c3sc4c(c3C(=O)O)CC(C)(C)CC4)cc2)NC(=O)OC2COC3(C)OCCC23)cc1` (stereo not drawn) [Compound I-724] returned an IC50 of 1.83 nM.
`COc1ccc(S(=O)(=O)N(CC(C)C)CC(O)C(Cc2ccc(NCc3cc(N4CC(C)(C)C4=O)ccc3-c3sc4c(c3C(=O)O)CC(C)(C)CC4)cc2)NC(=O)OC2COC3(C)OCCC23)cc1` (stereo not drawn) [Compound I-728] had an IC50 of 2.96 nM. This IC50 is about 1.6-fold higher than that of the compound before.
Turning to `COc1ccc(S(=O)(=O)N(CC(C)C)CC(O)C(Cc2ccc(NCc3cc(N4CCCCC4=O)ccc3-c3sc4c(c3C(=O)O)CC(C)(C)CC4)cc2)NC(=O)OC2COC3(C)OCCC23)cc1` (stereo not drawn) [Compound I-729], half-maximal inhibition (IC50) was put at 1.64 nM.
The figure for `COc1ccc(S(=O)(=O)N(CC(C)C)CC(O)C(Cc2ccc(N(C)Cc3cc(N4CC(C)(C)C4=O)ccc3-c3sc4c(c3C(=O)O)CC(C)(C)CC4)cc2)NC(=O)OC2COC3(C)OCCC23)cc1` (stereo not drawn) [Compound I-730] is 2.84 nM.
With `COc1ccc(S(=O)(=O)N(CC(C)C)CC(O)C(Cc2ccc(N(C)Cc3cc(N4CCCCC4=O)ccc3-c3sc4c(c3C(=O)O)CC(C)(C)CC4)cc2)NC(=O)OC2COC3(C)OCCC23)cc1` (stereo not drawn) [Compound I-731], half-maximal inhibition (IC50) was put at 1.96 nM. This IC50 and that of the compound before are within 1.5-fold of each other.
The figure for `COc1ccc(S(=O)(=O)N(CC(C)C)CC(O)C(Cc2ccc(NCc3cc(OC)ccc3C(=O)Nc3sc4c(c3C(=O)O)CC(C)(C)CC4)cc2)NC(=O)OC2COC3(C)OCCC23)cc1` (stereo not drawn) [Compound I-732] is 3.26 nM.
`COc1ccc(S(=O)(=O)N(CC(C)C)CC(O)C(Cc2ccc(N(C)Cc3cc(C(F)(F)F)ccc3C(=O)Nc3sc4c(c3C(=O)O)CC(C)(C)CC4)cc2)NC(=O)OC2COC3(C)OCCC23)cc1` (stereo not drawn) [Compound I-734] displayed an IC50 of 15.4 nM. Against the preceding compound, the IC50 is about 4.7-fold higher.
For the compound `COc1ccc(S(=O)(=O)N(CC(C)C)CC(O)C(Cc2ccc(NCC3CC(C)(C)CC3c3sc4c(c3C(=O)O)CC(C)(C)CC4)cc2)NC(=O)OC2COC3(C)OCCC23)cc1` (stereo not drawn) [Compound I-735], 1.56 nM corresponded to half-maximal inhibition (IC50). Compared with the last compound, the IC50 is about 9.9-fold lower.
The figure for `COc1ccc(S(=O)(=O)N(CC(C)C)CC(O)C(Cc2ccc(NCc3nc(N4CCCCC4)sc3-c3sc4c(c3C(=O)O)CC(C)(C)CC4)cc2)NC(=O)OC2COC3(C)OCCC23)cc1` (stereo not drawn) [Compound I-737] is 1.99 nM.
`COc1ccc(S(=O)(=O)N(CC(C)C)CC(O)C(Cc2ccc(NCc3nc(N4CCOCC4)sc3-c3sc4c(c3C(=O)O)CC(C)(C)CC4)cc2)NC(=O)OC2COC3(C)OCCC23)cc1` (stereo not drawn) [Compound I-738] registered an IC50 of 1.8 nM.
In turn, `COc1ccc(S(=O)(=O)N(CC(C)C)CC(O)C(Cc2ccc(NCc3ccc(N4CC(C)(C)C4=O)cc3-c3sc4c(c3C(=O)O)CC(C)(C)CC4)cc2)NC(=O)OC2COC3(C)OCCC23)cc1` (stereo not drawn) [Compound I-740] displayed an IC50 of 1.6 nM.
On to `COc1ccc(S(=O)(=O)N(CC(C)C)CC(O)C(Cc2ccc(N(C)Cc3ccc(N4CCCCC4=O)cc3-c3sc4c(c3C(=O)O)CC(C)(C)CC4)cc2)NC(=O)OC2COC3(C)OCCC23)cc1` (stereo not drawn) [Compound I-743], for which the concentration for half-maximal inhibition (IC50) came to 2.32 nM.
Turning to `COc1ccc(S(=O)(=O)N(CC(C)C)CC(O)C(Cc2ccc(N(C)Cc3ccc(N4CCCC4=O)cc3-c3sc4c(c3C(=O)O)CC(C)(C)CC4)cc2)NC(=O)OC2COC3(C)OCCC23)cc1` (stereo not drawn) [Compound I-744], 2.14 nM corresponded to half-maximal inhibition (IC50).
For the compound `COc1ccc(S(=O)(=O)N(CC(C)C)CC(O)C(Cc2ccc(N(C)Cc3ccc(C)cc3C(=O)Nc3sc4c(c3C(=O)O)CC(C)(C)CC4)cc2)NC(=O)OC2COC3(C)OCCC23)cc1` (stereo not drawn) [Compound I-745], the IC50 worked out at 3.39 nM.
The figure for `COc1ccc(S(=O)(=O)N(CC(C)C)CC(O)C(Cc2ccc(N(C)Cc3cc(C)ccc3C(=O)Nc3sc4c(c3C(=O)O)CC(C)(C)CC4)cc2)NC(=O)OC2COC3(C)OCCC23)cc1` (stereo not drawn) [Compound I-746] is 2.81 nM.
`COc1ccc(S(=O)(=O)N(CC(C)C)CC(O)C(Cc2ccc(N(C)Cc3cccc(C)c3C(=O)Nc3sc4c(c3C(=O)O)CC(C)(C)CC4)cc2)NC(=O)OC2COC3(C)OCCC23)cc1` (stereo not drawn) [Compound I-747]: the midpoint of inhibition, the IC50, lay at 4.35 nM. Compared with the last compound, the IC50 is about 1.5-fold higher.
The value for `COc1ccc(S(=O)(=O)N(CC(C)C)CC(O)C(Cc2ccc(NCc3c(F)cccc3C(=O)Nc3sc4c(c3C(=O)O)CC(C)(C)CC4)cc2)NC(=O)OC2COC3(C)OCCC23)cc1` (stereo not drawn) [Compound I-748] was 2.39 nM; that for `COc1ccc(S(=O)(=O)N(CC(C)C)CC(O)C(Cc2ccc(NCc3cccc(F)c3C(=O)Nc3sc4c(c3C(=O)O)CC(C)(C)CC4)cc2)NC(=O)OC2COC3(C)OCCC23)cc1` (stereo not drawn) [Compound I-749] was 2.33 nM.
In turn, `COc1ccc(S(=O)(=O)N(CC(C)C)CC(O)C(Cc2ccc(N(C)Cc3ccc(N4CC(C)(C)C4=O)cc3-c3sc4c(c3C(=O)O)CC(C)(C)CC4)cc2)NC(=O)OC2COC3(C)OCCC23)cc1` (stereo not drawn) [Compound I-750] yielded a concentration for half-maximal inhibition (IC50) of 4.6 nM.
The value for `COc1ccc(S(=O)(=O)N(CC(C)C)CC(O)C(Cc2ccc(NC3CCCc4c(-c5sc6c(c5C(=O)O)CC(C)(C)CC6)cccc43)cc2)NC(=O)OC2COC3(C)OCCC23)cc1` (stereo not drawn) [Compound I-751] was 15.7 nM; that for `COc1ccc(S(=O)(=O)N(CC(C)C)CC(O)C(Cc2ccc(NC3CCCc4c(-c5sc6c(c5C(=O)O)CC(C)(C)CC6)cccc43)cc2)NC(=O)OC2COC3(C)OCCC23)cc1` (stereo not drawn) [Compound I-752] was 13.3 nM.
The compound `COc1ccc(S(=O)(=O)N(CC(C)C)CC(O)C(Cc2ccc(NCc3nc(N4CCC4)sc3-c3sc4c(c3C(=O)O)CC(C)(C)CC4)cc2)NC(=O)OC2COC3(C)OCCC23)cc1` (stereo not drawn) [Compound I-753] had an IC50 of 2.39 nM.
The value for `COc1ccc(S(=O)(=O)N(CC(C)C)CC(O)C(Cc2ccc(NCc3cc4c(cc3-c3sc5c(c3C(=O)O)CC(C)(C)CC5)OCC(=O)N4)cc2)NC(=O)OC2COC3(C)OCCC23)cc1` (stereo not drawn) [Compound I-754] was 2.49 nM; that for `COc1ccc(S(=O)(=O)N(CC(C)C)CC(O)C(Cc2ccc(N(C)Cc3nc(N4CCCC4)ccc3-c3sc4c(c3C(=O)O)CC(C)(C)CC4)cc2)NC(=O)OC2COC3(C)OCCC23)cc1` (stereo not drawn) [Compound I-755] was 2.69 nM; that for `COc1ccc(S(=O)(=O)N(CC(C)C)CC(O)C(Cc2ccc(N(C)Cc3nc(N4CCCCC4)sc3-c3sc4c(c3C(=O)O)CC(C)(C)CC4)cc2)NC(=O)OC2COC3(C)OCCC23)cc1` (stereo not drawn) [Compound I-756] was 3.46 nM.
